This is an account of results in US20230346826A1, “COMPOSITIONS AND METHODS FOR TREATING AND/OR PREVENTING AUTOIMMUNE DISORDERS” (The Regents of the University of Michigan, priority 2020, published 2023).

For data set [1], the system named is C57BL/6 mice given 3% DSS (acute colitis). Briefly: DSS-induced acute colitis model. The note with it: 3% DSS for 6 days, oral gavage. The format is in vivo. The text has this:
We examined whether oral administration of inulin gel loaded with an immune tolerizing drug can exert therapeutic efficacy against colitis. Mice were given 3% DSS in drinking water for 6 days to induce acute colitis. Starting day 0, mice were also orally gavaged with either PBS, an Ahr ligand, indole-3-aldehyde (IALD), or inulin gel formulated with IALD (inulin gel + IALD) (FIG. 5A).
Method: Six-week-old female C57BL/6 mice were acclimatized for 2 weeks before the start of the study. To induce colitis, mice were given 3% DSS (40 kDa; Alfa Aesar) supplemented in the drinking water for 6 days, followed by giving normal water. Inulin gel + IALD, IALD or PBS was orally gavaged into mice on predetermined days. The inulin gel + IALD was prepared by dissolving 300 mg of inulin from chicory (Sigma-Aldrich) in 0.9 ml deionized water and 0.1 ml IALD solution (50 mg/mL, DMSO). The inulin solution was thoroughly mixed with IALD solution by vortex and was heated to 70° C. for 5 min. The formulation was kept at room temperature for 12 h for gelation. The IALD was prepared similarly without adding the inulin. Bodyweight were measured daily over the experimental period. On day 9, mice were sacrificed, and the entire colon was excised. Colon length and the cecum weight was measured.

Data set [2] deals with BABL/c mice sensitized with OVA/Alum (OVA allergy). Type of data set: in vivo. The following applies: after the 3rd OVA challenge; escalated dose OIT. The procedure: To simulate the widely used therapeutic plan in clinic, we next provided the escalated dose of OVA in OIT treatment (FIG. 2a).
Preparation and characterization of inulin gel, PE or OVA loaded inulin gel. For OVA-related study, 495 mg of inulin from chicory (Sigma-Aldrich) was dissolved in 1.35 mL PBS and heated for 5 min. OVA (Sigma-Aldrich) was added right after cool-down of inulin. For PE-related study, 300 mg of inulin from chicory (Sigma-Aldrich) was dissolved in 0.9 mL deionized water, after heating for 5 min, 8 mg of PE was added right after cool-down. Samples were kept at 4° C. for 24 h. […] The content of protein in peanut extraction (around 20%) was determined by BCA assay.
In vivo oral sensitization, immunotherapy, and challenge. […] Body weight before all times of i.g. challenge were recorded, while the body temperature in the last time of i.g. challenge was measured. […] On day 73, mice were i.p. injected with 125 µg PE and the body temperature was recorded at preset times via rectal temperature probe.
Assessment of hypersensitivity reactions and diarrhea. Anaphylactic symptoms were evaluated between 30 to 50 minutes after i.p. challenge of PE (125 µg/dose) or i.g. challenge of OVA (50 mg/dose). […] For OVA study, mice with profuse liquid stool up to 1 h after i.g. challenge were recorded as diarrhea-positive animals. […]
Intestinal mast cell quantification. […]

For `O=Cc1c[nH]c2ccccc12` [IALD, indole-3-aldehyde], the bodyweight loss entry in data set [1] (daily bodyweight for 9 d) is given as “significant bodyweight loss”. For the same molecule, the “shortening of the colon length” value in data set [1] (day 9) is “shortening of the colon length”.

B1: OVA: albumin (OVA) protein, unformulated allergen given orally as OIT comparator (protein, UniProt P01012 2-386, looked up)
Ovalbumin: GSIGAASMEFCFDVFKELKVHHANENIFYCPIAIMSALAMVYLGAKDSTRTQINKVVRFDKLPGFGDSIEAQCGTSVNVHSSLRDILNQITKPNDVYSFSLASRLYAEERYPILPEYLQCVKELYRGGLEPINFQTAADQARELINSWVESQTNGIIRNVLQPSSVDSQTAMVLVNAIVFKGLWEKAFKDEDTQAMPFRVTEQESKPVQMMYQIGLFRVASMASEKMKILELPFASGTMSMLVLLPDEVSGLEQLESIINFEKLTEWTSSNVMEERKIKVYLPRMKMEEKYNLTSVLMAMGITDVFSSSANLSGISSAESLKISQAVHAAHAEINEAGREVVGSAEAGVDAASVSEEFRADHPFLFCIKHIATNAVLFFGRCVSP
B1: in data set [2], the “death after OVA challenge” value is on record as “Some mice in the OVA group died”.
